Here are results for one molecule from patent US20250387504A1, “ANTIBODY-DRUG CONJUGATES OF ANTINEOPLASTIC COMPOUNDS AND METHODS OF USE THEREOF” (Novartis AG, priority 2022, published 2025).

The subject of test [1] is KMS-27. Briefly: CellTiter-Glo proliferation assay, CD48 MCL-1 and BCL-2 ADCs (Example 4). Particulars: KMS-27, 120 h, read-out: KMS-27 IC50 (nM). (Cellular ATP, detected with luciferase, serves as a proxy for viable cell number.)
Method: (§3) The ability of the MCL-1 and BCL-2 antibody drug conjugates to inhibit cell proliferation and survival was assessed using the Promega CellTiter-Glo® proliferation assay.
(§4) Cell lines were cultured in media that is optimal for their growth at 5% CO2, 37° C. in a tissue culture incubator. Prior to seeding for the proliferation assay, the cells were split at least 2 days before the assay to ensure optimal growth density. On the day of seeding, cell viability and cell density were determined using a cell counter (Vi-Cell XR Cell Viability Analyzer, Beckman Coulter). […] Cells were seeded at a density of 1,000 cells per well in 45 μL of standard growth media. Plates were incubated at 5% CO2, 37° C. overnight in a tissue culture incubator. The next day, free MCL-1 and BCL-2 payloads, targeting MCL-1 and BCL-2 ADCs, and non-targeting isotype ADCs free MCL-1 and BCL-2 payloads, were prepared at 10× in standard growth media. […] Each drug concentration was tested in quadruplets. Plates were incubated at 5% CO2, 37° C. for 5 days in a tissue culture incubator, after which cell viability was assessed through the addition of 25 L μof CellTiter Glo® (Promega, cat #G7573), a reagent which lyses cells and measures total adenosine triphosphate (ATP) content. Plates were incubated at room temperature for 10 minutes to stabilize luminescent signals prior to reading using a luminescence reader (EnVision Multilabel Plate Reader, PerkinElmer). To evaluate the effect of the drug treatments, luminescent counts from wells containing untreated cells (100% viability) were used to normalize treated samples. […] IC50 and Amax values were extrapolated from the resultant curves.
In test [2] the test system is cancer cell lines expressing CD48, CD74, EphA2, Her2 and PCAD. The test can be described thus: CellTiter-Glo proliferation assay, summary over the Example 6 cell lines. In kind it is cell-based. The conditions noted are these: representative CD48 and CD74 cancer cell lines; read-out: IC50 values range. How it is done: (§1) The CD74 MCL-li and BCL-xLi antibody drug conjugates and the CD74 BCL-xL antibody drug conjugates were tested against two endogenous cancer cell lines. • Kasumi-6: ATCC No. CRL-2775 cultured in RPMI 1640 medium with 2 mM L-glutamine adjusted to contain 1.5 g/L sodium bicarbonate, 4.5 g/L glucose, 10 mMv HEPES, and 1.0 mM sodium pyruvate supplemented with 2 ng/ml human recombinant granulocyte macrophage colony stimulating factor (GM-CSF) and 20% FBS • EOL-1: DSMZ No. ACC-386 cultured in RPMI-1640+10% FBS
The EphA2 antibody drug conjugates were tested against one endogenous cancer cell line. • HCC-38: ATCC No. CRL-2314 cultured in RPMI-1640+10% FBS
(§2) The next day, free MCL-1 payload (P1), free BCL-xL payload (P5 and P6) and targeting MCL-1 and BCL-xL ADCs and targeting BCL-xL ADCs were prepared at 10X in standard growth media. […] Each drug concentration was tested in quadruplets.

Test [3] relates to MOLP-8. Briefly: CellTiter-Glo proliferation assay, CD48 MCL-1 and BCL-2 ADCs (Example 4). The conditions noted are these: Homo sapiens, MOLP-8, 120 h, read-out: MOLP-8 IC50 (nM).
Method: as §3, §4
In test [4] the test system is KMS-21-BM. Described as above. Particulars: 120 h, read-out: KMS-21-BM IC50 (nM).
Method: as §3, §4
Test [5] deals with KE-97. The test is described as above. Particulars: KE-97, 120 h, read-out: Ke97 IC50 (nM).
Method: as §3, §4
For test [6], the system named is Kasumi-6. The test can be described thus: CellTiter-Glo proliferation assay, CD74 MCL-1/BCL-xL and BCL-xL ADCs (Example 6). In kind it is cell-based. Particulars: Table 4 CD74 ADC, 5 days. How it is done:
as §1, §2

In test [7] the test system is EOL-1. The test is described as above. In kind it is cell-based. The conditions noted are these: Table 4 CD74 ADC, 5 days. How it is done:
as §1, §2

The test system of test [8] is NCI-H929. The test can be described thus: CellTiter-Glo proliferation assay, CD48 MCL-1 and BCL-2 ADCs (Example 4). The conditions noted are these: Homo sapiens, NCI-H929, 120 h, read-out: NCI-H929 IC50 (nM).
Method: as §3, §4
For test [9], the system named is KHM-1B. The description is as above. The conditions noted are these: 120 h, read-out: KHM-1B IC50 (nM).
Method: as §3, §4
Test [10] has as its system AMO-1. Described as above. The conditions noted are these: Homo sapiens, AMO1, 120 h, read-out: AMO-1 IC50 (nM).
Method: as §3, §4
Test [11] has as its system AMO-1. Briefly: CellTiter-Glo proliferation assay, CD48 MCL-1/BCL-xL and BCL-xL ADCs (Example 6). In kind it is cell-based. Particulars: Table 3 CD48 ADC, 5 days. How it is done:
as §2

Test [12] relates to KMS-27. Described as above. The conditions noted are these: Table 3 CD48 ADC, 5 days. In kind it is cell-based. How it is done:
as §2

In test [13] the test system is RL. The test can be described thus: CellTiter-Glo proliferation assay, CD48 MCL-1 and BCL-2 ADCs (Example 4). The conditions noted are these: Homo sapiens, 120 h, read-out: RL IC50 (nM).
Method: as §3, §4
Test [14] concerns WSU-DLCL2. Described as above. Particulars: Homo sapiens, WSUDLCL2, 120 h, read-out: WSU-DLCL2 IC50 (nM).
Method: as §3, §4
Test [15] relates to EOL-1. The test can be described thus: CellTiter-Glo proliferation assay, CD74 Milatuzumab MCL-1i and BCL2i ADCs (Example 5). The conditions noted are these: EOL-1, 5 days, 0.008-150 nM. It is filed as cell-based. How it is done: The CD74 Milatuzumab […] […] The next day, free MCL-1 payload (P1) and targeting MCL-1 and BCL-2 ADCs were prepared at 10X in standard growth media. […] Each drug concentration was tested in quadruplets.

Usually IC50 stands for the concentration that inhibits the measured activity by half.

Turning to `COc1ccccc1-c1nccc(COc2ccccc2C[C@@H](Oc2ncnc3sc(-c4ccc(F)cc4)c(-c4ccc(OCCN5CCN(C)CC5)c(Cl)c4C)c23)C(=O)O)n1` [P1], the IC50 in test [1] was 13.3 nM; in test [2], 0.685 to 36 nM; in [3], 6.17 nM; in test [4], 1.66 nM; in test [5] it was more than 250 nM; in test [6] (120 h, 0.01-600 nM), 36 nM. Moreover, the IC50 in [7] (Homo sapiens, EOL1, 120 h, 0.01-600 nM) worked out at 0.685 nM; in test [8], 5.17 nM; in test [9], 1.62 nM; in [10] it was 4.7 nM; in test [11] (Homo sapiens, AMO1, 120 h, 0.01-600 nM), 3.8 nM; in test [12] (KMS-27, 120 h, 0.01-600 nM) it was 5.23 nM. For the same molecule, the 50% inhibitory concentration (IC50) in [13] is more than 250 nM; in test [14], 41.1 nM; in [15] (Homo sapiens, EOL1, 120 h), 0.338 nM. The “Kasumi-6 Amax (Span)” value in [6] was 111.4. Further, the “EOL-1 Amax (Span)” value in test [7] is recorded as 98.4. The “AMO-1 Amax (Span)” value in test [11] was found to be 95.8. In test [12], the “KMS-27 Amax (Span)” value worked out at 96.7. Besides, the “Amax (Span)” value in test [15] was found to be 88.6.
